Measurements: US12042503B2, “Compositions and methods for treating coronavirus infections” (priority 2020, dated 2024)
“And” between values parts separate entries of the source, which are not always exact repeats. Identical values can stand only once. Counter-ions that a name gives are not always drawn. Like-named read-outs stand apart in the source and are kept apart here.

Key:
[1] = target: T1, IP receptor (PTGIR) (Homo sapiens, UniProt P43119); test: PathHunter beta-arrestin cell-based prostanoid receptor assay, IP
T1 construct: host or cells: PathHunter beta-arrestin cell line
T1 sequence (P43119 whole entry): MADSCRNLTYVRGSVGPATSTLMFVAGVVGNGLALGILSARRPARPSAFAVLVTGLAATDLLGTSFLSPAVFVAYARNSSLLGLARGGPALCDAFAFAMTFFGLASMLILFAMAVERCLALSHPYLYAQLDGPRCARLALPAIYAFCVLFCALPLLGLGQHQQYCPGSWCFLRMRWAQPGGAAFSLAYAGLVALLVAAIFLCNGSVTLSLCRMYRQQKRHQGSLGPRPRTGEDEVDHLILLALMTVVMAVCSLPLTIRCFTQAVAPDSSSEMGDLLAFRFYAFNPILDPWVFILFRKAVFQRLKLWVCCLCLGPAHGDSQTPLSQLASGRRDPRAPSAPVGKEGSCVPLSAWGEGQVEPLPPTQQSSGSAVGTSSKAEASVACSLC
Protocol: (§1) DiscoverX cell-based ligand binding assays were performed in the PathHunter beta-arrestin (EP1, EP2, EP3, EP4, FP, IP, and TP receptors) or cAMP Hunter™ (DP receptor) cell lines.
(§2) Receptor binding studies were performed in either the PathHunter® b-Arrestin (EP1, EP2, EP3, EP4, FP, IP, and TP receptors) or cAMP Hunter™ (DP receptor) cell lines. A 10 mM working stock of GP1681 was created in 1×PBS, pH 7.4. All assays were carried out in duplicate with 10 individual concentrations of GP1681. A three-fold dilution series of GP1681 was established for the initial or pilot experiment with a starting concentration of 4 uM (starting concentration was chosen based on previous Gemmus Pharma preclinical experimental results).
(§3) GP1681 was incubated with cells lines at either 37° C. or room temperature, for 90-180 minutes (temperatures and incubation times are all dependent on established optimized procedures for each receptor cell line) after which cell wells were processed and signal production detected. […] Vehicle only controls (PBS, pH 7.4) were also included for each receptor cell line. Receptor binding activity was analyzed using CBIS data analysis suite (ChemInnovation, CA). The percentage of activity was calculated using the following formula: % Activity=100%×(mean RLU of test sample−mean RLU of vehicle control)/(mean MAX control ligand−mean RLU of vehicle control). Dose curves were performed and EC50 values determined.

[2] = target: T2, EP1 receptor (PTGER1) (Homo sapiens, UniProt P34995); test: PathHunter beta-arrestin cell-based prostanoid receptor assay, EP1; conditions: β-Arrestin
T2 construct: host or cells: PathHunter beta-arrestin cell line
T2 sequence (P34995 1-402): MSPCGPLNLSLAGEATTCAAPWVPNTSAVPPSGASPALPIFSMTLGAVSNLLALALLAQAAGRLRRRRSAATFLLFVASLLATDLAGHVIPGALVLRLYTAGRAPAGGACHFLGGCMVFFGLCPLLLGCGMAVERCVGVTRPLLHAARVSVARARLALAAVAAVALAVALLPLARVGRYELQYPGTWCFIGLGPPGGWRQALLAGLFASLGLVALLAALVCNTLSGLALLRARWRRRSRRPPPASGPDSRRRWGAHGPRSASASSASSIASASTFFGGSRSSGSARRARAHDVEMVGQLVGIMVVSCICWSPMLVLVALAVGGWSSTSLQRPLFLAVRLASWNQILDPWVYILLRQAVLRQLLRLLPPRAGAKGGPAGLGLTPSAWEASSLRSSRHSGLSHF
Protocol: as §1, §2, §3
(§4) The four assays were repeated with a higher starting concentration.
(§5) The second experimental run of the receptor binding assay was performed with these last four cell lines including GP1681 and their respective positive and negative (vehicle, PBS pH 7.4) controls. A 10 mM GP1681 working stock was again created in 1×PBS, pH 7.4. A three-fold serial dilution scheme was again used for GP1681 samples, starting this time at a concentration of 500 μM. The remainder of the second experimental run was performed in the same manner as run 1.

[3] = target: T3, EP4 receptor (PTGER4) (Homo sapiens, UniProt P35408); test: PathHunter β-Arrestin PTGER4 (EP4) antagonist assay against GP1681 at EC80; assay type: cell-based; conditions: for inhibition of GP1681 activity, in words: standard 10 μM top concentration
T3 construct: expressed in transfected cells; host or cells: PathHunter β-Arrestin PTGER4 (EP4) cell line
T3 sequence (P35408 whole entry): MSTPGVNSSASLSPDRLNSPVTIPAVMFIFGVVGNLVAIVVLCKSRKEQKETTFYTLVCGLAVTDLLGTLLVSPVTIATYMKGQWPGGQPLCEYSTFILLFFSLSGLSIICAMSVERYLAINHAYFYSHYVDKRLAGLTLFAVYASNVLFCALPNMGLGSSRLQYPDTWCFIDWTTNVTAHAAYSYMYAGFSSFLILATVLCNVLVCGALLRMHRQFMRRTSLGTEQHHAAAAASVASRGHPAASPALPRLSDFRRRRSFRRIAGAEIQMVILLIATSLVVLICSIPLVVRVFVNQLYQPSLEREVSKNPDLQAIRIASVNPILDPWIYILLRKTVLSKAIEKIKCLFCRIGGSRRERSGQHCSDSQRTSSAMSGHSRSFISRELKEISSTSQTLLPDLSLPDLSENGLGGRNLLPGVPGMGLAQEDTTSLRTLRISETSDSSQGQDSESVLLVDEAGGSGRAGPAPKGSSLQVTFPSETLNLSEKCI
Protocol: This Example describes antagonist assay experiments performed with known EP4 receptor inhibitors. Agonist controls and antagonist binding studies were performed in the PathHunter® β-Arrestin PTGER4 (EP4) cell lines. The PathHunter® β-Arrestin assay monitors activation by bound ligands of a GPCR in a homogenous, non-imaging assay format using Enzyme Fragment Complementation (EFC) with β-galactosidase (β-Gal) as the functional reporter. A fresh 10 mM working stock of GP1681 was created in the vehicle (1×PBS, pH 7.4). Prior to setting up the GP1681-antagonist assays, the parameters of the GP1681 agonist assay were optimized for most efficient cellular activation and expression of the reporter molecule via GP1681 receptor (PTGER4) binding. Two different cell densities (5K vs 7.5K) and incubation temperatures (room temperature and 37 C) were evaluated in standard agonist format. […] Vehicle only controls (1×PBS, pH 7.4) were also included for each receptor cell line. Receptor binding activity was analyzed using CBIS data analysis suite (ChemInnovation Software, Inc., San Diego, CA, USA).
The percentage of activity was calculated using the following formula: % Activity=100%×(mean RLU of test sample−mean RLU of vehicle control)/(mean MAX control ligand−mean RLU of vehicle control). Dose curves were performed and EC50 values determined. In all rows, the assay was Arrestin, the assay target was PTGER4, and the result type was EC50 for all agonists, and IC50 for all antagonists. NI indicates no inhibition, N is number of replicates, K is cell density, and RT is room temperature.
All antagonist assays were carried out in duplicate with 10 individual concentrations of one of six antagonist compounds (commercially available from Cayman Chemical; Ann Arbor, MI, USA). […] For antagonist assays, data was normalized to the maximal and minimal response observed in the presence of EC80 ligand and vehicle. A three-fold dilution series of each compound was established with a parameters). […] Incubation was at 37° C. for 90-180 minutes after which cell wells were processed for signal detection. Microplates were read following signal generation with a PerkinElmer Envision™ instrument (Waltham, MA, USA) for chemiluminescent signal detection. Vehicle only controls (PBS, pH 7.4) were also included for each antagonist run. Receptor binding activity was analyzed using CBIS data analysis suite (ChemInnovation, CA, USA). […] Percentage inhibition was calculated using the following formula: % Inhibition=100%×(1−(mean RLU of test sample−mean RLU of vehicle control)/(mean RLU of EC80 control−mean RLU of vehicle control)). […] This molecule was included as a control molecule for Eurofins work.

[4] = target: T4, TP receptor (TBAX2R) (Homo sapiens, UniProt P21731); test: PathHunter beta-arrestin cell-based prostanoid receptor assay, TP; conditions: Run 1, GP1681 starting concentration 4 uM; β-Arrestin
T4 construct: host or cells: PathHunter beta-arrestin cell line
T4 sequence (P21731 1-343): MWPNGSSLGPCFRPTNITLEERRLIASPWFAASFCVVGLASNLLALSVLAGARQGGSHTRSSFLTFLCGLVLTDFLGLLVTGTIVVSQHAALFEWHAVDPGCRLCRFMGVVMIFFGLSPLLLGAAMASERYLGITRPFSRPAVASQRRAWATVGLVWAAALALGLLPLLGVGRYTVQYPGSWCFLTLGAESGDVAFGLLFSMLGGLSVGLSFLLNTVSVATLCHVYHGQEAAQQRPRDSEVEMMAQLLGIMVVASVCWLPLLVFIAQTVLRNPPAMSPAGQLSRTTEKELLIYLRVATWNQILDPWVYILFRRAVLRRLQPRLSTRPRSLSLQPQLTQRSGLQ
Protocol: as §1, §2, §3

[5] = target: T5, DP1 receptor (PTGDR) (Homo sapiens, UniProt Q13258); test: cAMP Hunter cell-based prostanoid receptor assay, DP receptor; conditions: HitHunter cAMP cell line
T5 construct: host or cells: cAMP Hunter (DP receptor) cell line
T5 sequence (Q13258 1-359): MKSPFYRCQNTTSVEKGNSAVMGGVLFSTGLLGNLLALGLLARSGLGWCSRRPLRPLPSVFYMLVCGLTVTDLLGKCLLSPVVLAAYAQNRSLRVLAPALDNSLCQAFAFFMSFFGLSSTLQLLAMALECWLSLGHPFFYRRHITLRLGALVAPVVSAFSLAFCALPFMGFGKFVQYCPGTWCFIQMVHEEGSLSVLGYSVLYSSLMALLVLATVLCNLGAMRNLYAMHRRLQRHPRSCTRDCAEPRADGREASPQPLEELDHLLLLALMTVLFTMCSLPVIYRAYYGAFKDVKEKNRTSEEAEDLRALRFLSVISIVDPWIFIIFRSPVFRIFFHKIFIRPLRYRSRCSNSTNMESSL
Protocol: as §1, §2, §3, §4, §5

[6] = Run 1, GP1681 starting concentration 4 uM, curve for GP1681 not fully sigmoidal
[7] = Run 2, GP1681 starting concentration 500 μM
[8] = 5K 37C, challenge with GP1681 at EC80 (45 μM), read-out: RC50 (μM) / IC50, antagonist
[9] = 5K 37C, GP1681 at EC80, read-out: IC50 for competitive inhibition of GP1681

CC#CCC(C)C(O)C=CC1C(O)CC2Oc3c(CCCC(=O)O)cccc3C21 (racemic) [Beraprost, 2,3,3a,8b-tetrahydro-2-hydroxyl-1-(3-hydroxyl-4-methyl-1-octen-6-ynyl)-1H-cyclopenta[b]benzofuran-5-butanoic acid, sodium salt]
EC50 [1]: 0.436 µM
fold lower affinity as compared to GP1681 for the IP receptor ([1]; ratio of EC50 values): about 4 fold

CCCCC[C@H](O)/C=C/[C@H]1[C@H](O)CC(=O)[C@@H]1C/C=C\CCCC(=O)O [PGE2, Prostaglandin E2, reference compound]
EC50 [2, 6]: 0.0049 µM
EC50 [2, 7]: 0.0063 µM

O=C(O)CC/C=C\CC[C@H]1[C@H](N2CCOCC2)C(=O)C[C@H]1OCc1ccc(-c2ccccc2)cc1 [AH 23848 (Ca salt)]
IC50 [3, 8]: > 10 µM
inhibition of GP1681 activity, in words ([3]; GP1681 at EC80): did not inhibit GP1681

O=C(O)CCC/C=C\C[C@@H]1[C@@H](/C=C/[C@@H](O)COc2ccc(I)cc2)[C@H]2CC[C@@H]1O2 [I-BOP, reference compound]
EC50 [4]: 0.032 µM

CCCCc1nn(-c2ccccc2C(F)(F)F)c(=O)n1Cc1ccc(-c2ccccc2S(=O)(=O)NC(=O)c2sccc2C)cc1 [L-161,982]
IC50 [3, 9]: 0.0339 µM
IC50 [3, 8]: 0.0339 µM

CCc1nc2c(C)nc(C)cc2n1-c1ccc(CCNC(=O)NS(=O)(=O)c2ccc(C)cc2)cc1 [CJ-023423]
IC50 ([3]; IC50 for competitive inhibition of GP1681, 5K 37C, GP1681 at EC80): 0.0265 µM
IC50 ([3]; RC50 (μM) / IC50, antagonist, 5K 37C, challenge with GP1681 at EC80 (45 μM)): 0.0265 µM and 0.0266 µM

CCCCC[C@H](O)/C=C/[C@H]1C(=O)C[C@H](O)[C@@H]1C/C=C\CCCC(=O)O [PDG2, PGD2, reference compound]
EC50 [5, 6]: 0.0022 µM
EC50 [5, 7]: 0.0012 µM

CCOc1c2c(c(OCC)c3ccccc13)C(=O)N(c1ccc(CC(=O)NS(=O)(=O)c3ccccc3)cc1)C2 [GW 627368X]
IC50 [3, 9]: 0.0442 µM
IC50 [3, 8]: 0.0442 µM

CCCCCC(O)CCC1CCC(=O)N1CCCCCCC(=O)O (stereo not drawn) [CAY10580]
IC50 [3, 8]: > 10 µM
complementary activity in antagonist assay, in words ([3]; only at 3 and 10 μM concentrations): low level of complementary activity
inhibition of GP1681 activity, in words ([3]; GP1681 at EC80): did not inhibit activity of GP1681
